# Measurements published in US20220373538A1, “COMPOSITION FOR DETERMINATION OF CELL-MEDIATED IMMUNE RESPONSIVENESS” (Lophius Biosciences GmbH, priority 2015, published 2022).
# Like-named read-outs stand apart in the source and are kept apart here.
# Columns and labels:
# Format in all cases: cell-based, human
# PBMC [1] = assay: IFN-γ ELISpot assay, one-step detection; settings: for IFN-γ secreting cells after stimulation with the single stimulant (in words) / number of IFN-γ secreting cells detected: single stimulant alone; for IFN-γ secreting cells after stimulation with the single stimulant (in words): collective of 10 donors, LPS 1 EU/ml; for number of IFN-γ secreting cells detected: donor d270
# PBMC [2] = assay: IFN-γ ELISpot assay, two-step detection; settings: for IL-12 concentration at which the number of IFN-γ secreting cells reached a maximum or plateau, IL-12 combined with the poly(I:C) variant: 10 μg/ml poly(I:C)-LMW, 1 μg/ml poly(I:C)-LMW/LyoVec, 1 μg/ml poly(I:C) (Enzo)
# PBMC [3] = assay: IFN-γ ELISA, temporal course of IFN-γ release; settings: for start of IFN-γ secretion after stimulation: working concentrations, 0 to 24 hours
# Procedure: The detection of secreted IFN-γ was performed with the test kit “BD OptEIA Human IFN-γ ELISA Set” from Becton, Dickinson and Company according to the recommended assay performance in the technical data sheet.
# To ensure that the activation of the IFN-γ production by the tested stimulants occurred in the typical stimulation period of 19 hours, the temporal course of the IFN-γ secretion induced by the stimulants was determined over a period of 24 hours. For this purpose, at each time point PBMC adjusted to 2×10^5 lymphocytes of different donors have been stimulated by the determined working concentrations of the stimulants poly(I:C) in combination with IL-12. KRN7000 and CEFTv for 0 to 24 hours.
# In specifically stimulated cells the determination of the IFN-γ production was made to 11 time points in an interval of 2 or 4 hours. In unstimulated cells (negative control) three measurements in interval of 6 and 12 hours were made. Upon completion of each stimulation period the cells of the stimulation preparation were centrifuged and the supernatant stored at −20° C. After all stimulations were finished the IFN-γ concentration of the supernatants has been determined by IFN-γ ELISA as described in example 3.
# PBMC [4] = assay: IFN-γ ELISpot assay (T-Track basic IFN-γ), PBMC of rheumatism patients; settings: patient P1, giant cell arthritis, 35 mg prednisolone equivalent daily; days 6 and 9
# [5] = donor d022, a-Gal-Cer variants titrated, 19 h
molecule,measurement,setting,value
CCCCCCCCCCCCCCCCCCCCCCCCCC(=O)N[C@@H](CO[C@H]1O[C@H](CO)[C@H](O)[C@H](O)[C@H]1O)[C@H](O)[C@H](O)CCCCCCCCCCCCCC [KRN7000 (from Enzo)],"concentration at which the number of IFN-γ secreting cells reached a maximum, plateau or saturation region",PBMC [1]; [5],3 µg/mL
same,IFN-γ secreting cells after stimulation (in words),"PBMC [2]; donor d022, a-Gal-Cer variants",highest number
CCCCCCCCCCCCCCCCCCCCCCCCCC(=O)N[C@@H](CO[C@H]1O[C@H](CO)[C@H](O)[C@H](O)[C@H]1O)[C@H](O)[C@H](O)CCCCCCCCCCCCCC [KRN7000 (from Funakoshi)],"concentration at which the number of IFN-γ secreting cells reached a maximum, plateau or saturation region",PBMC [1]; [5],1 µg/mL
same,more IFN-γ secreting cells activated compared with KRN7000 (from Enzo),"PBMC [1]; donor d248, saturation region",100%
same,IFN-γ secreting cells after stimulation (in words),"PBMC [2]; donor d242, a-Gal-Cer variants",highest number of IFN-γ secreting cells
same,time at which IFN-γ secretion reached a plateau or maximum,PBMC [3]; donor d022,12 h
same,start of IFN-γ secretion after stimulation,PBMC [3]; donor d022,8 h
same,time at which IFN-γ secretion reached a plateau or maximum,PBMC [3]; donor d248,18 h
same,start of IFN-γ secretion after stimulation,PBMC [3]; donor d248,2 h
same,"IFN-γ release in PBMC, comparison of stimulants (in words)",PBMC [3]; summary of donors,weakest IFN-γ activating properties
C[C@]12C=CC(=O)C=C1CC[C@@H]1[C@@H]2[C@@H](O)C[C@@]2(C)[C@H]1CC[C@]2(O)C(=O)CO [prednisolone],course of cocktail-reactive IFN-γ producing cells under treatment (in words),PBMC [4],continuous drop in the numbers of cocktail-reactive IFN-g-producing cells
NC(N)=O [urea],IFN-γ secreting cells after stimulation with the single stimulant (in words),PBMC [1],did not result in a IFN-γ secretion
same,influence of urea on IFN-γ secreting cells induced by 1 μg p.p./ml CEFTv (in words),PBMC [2]; donor d034,only improved by a 24 hours pre-incubation of CEFTv or directly added urea
same,influence of urea on IFN-γ secreting cells induced by 1 μg p.p./ml CEFTv (in words),"PBMC [2]; donor d204, CEFTv pre-incubated for 48 hours in urea buffer",deterioration of the stimulation at 100 mM and an improvement at 150 mM
same,urea concentration up to which the IFN-γ secreting cells increased,"PBMC [2]; donor d204, CEFTv pre-incubated in urea buffer for 24 hours",12.5 mM
same,influence of urea on IFN-γ secreting cells induced by 1 μg p.p./ml CEFTv (in words),"PBMC [2]; donor d204, without pre-incubation",no improvement
lipopolysaccharide [LPS],effect of combination of LPS with CEFTv (in words),PBMC [1],synergistic induction of IFN-γ secreting NK cells
same,stimulation ability of CEFTv on simultaneous administration of LPS (in words),"PBMC [1]; all three tested donors d204, d237, d254",did not result in an improvement
same,IFN-γ secreting cells after stimulation (in words),"PBMC [1]; donor d204 (CMV-/EBV-seropositive), CEFTv / LPS matrix",high numbers of IFN-γ secreting cells
same,LPS concentration at which stimulated PBMC reached a maximum,"PBMC [1]; donor d219, LPS in combination with CEFTv",1 EU/ml
same,IFN-γ secreting cells after stimulation (in words),"PBMC [1]; donor d237 (CMV-seronegative/EBV-seropositive), CEFTv / LPS matrix",high numbers of IFN-γ secreting cells
same,LPS concentration as from which IFN-γ secreting cells increased,"PBMC [1]; donor d237, LPS in combination with CEFTv",3.2 EU/ml
same,LPS concentration as from which LPS alone induced a low secretion of IFN-γ,PBMC [1]; donor d241,10 EU/ml
same,LPS concentration as from which IFN-γ secreting cells increased,"PBMC [1]; donor d241, LPS in combination with CEFTv",3.2 EU/ml
same,LPS concentration as from which LPS alone induced a low secretion of IFN-γ,PBMC [1]; donor d254,100 EU/ml
same,IFN-γ secreting cells after stimulation (in words),"PBMC [1]; donor d254 (CMV-/EBV-seropositive), CEFTv / LPS matrix",low numbers of IFN-γ secreting cells
same,threshold for LPS at which even no IFN-γ secreting cells have been detected,"PBMC [1]; donors d204, d237, d254",1 EU/ml
same,IFN-γ secreting cells after stimulation with the single stimulant (in words),PBMC [1],barely detected
same,number of IFN-γ secreting cells detected,PBMC [1],high number of IFN-γ secreting cells
same,own stimulating effect of LPS (in words),PBMC [2]; LPS 1 EU/ml,no own detectable stimulating effect
same,stimulation ability of CEFTv on addition of LPS (in words),PBMC [2]; summary of four donors,could not have been improved
polyinosinic:polycytidylic acid [poly(I:C) (from Enzo)],change of the number of IFN-γ secreting cells by IL-12 in combination with the poly(I:C) variant (in words),PBMC [1],very low increase
same,"concentration at which the number of IFN-γ secreting cells reached a maximum, plateau or saturation region",PBMC [1],around 0.3 μg/ml
same,IFN-γ secreting cells after stimulation (in words),"PBMC [1]; donor d042, […]",activation of IFN-γ secreting PBMC
same,number of IFN-γ secreting cells exceeding the plateau of poly(I:C)-LMW,"PBMC [1]; donor d098, at highest concentration tested of 10 μg/ml",more than 100%
same,ranking of activation of IFN-γ secreting cells in culture of human PBMC,PBMC [1]; summary of one-step and two-step detection,highest activation of IFN-γ secreting cells
same,"IL-12 concentration at which the number of IFN-γ secreting cells reached a maximum or plateau, IL-12 combined with the poly(I:C) variant",PBMC [2]; donor d022,0.01 µg/mL
same,"IL-12 concentration at which the number of IFN-γ secreting cells reached a maximum or plateau, IL-12 combined with the poly(I:C) variant",PBMC [2]; donor d098,0.001 µg/mL
same,IFN-γ secreting cells after stimulation (in words),"PBMC [2]; donor d098, poly(I:C) variants",without reaching a plateau
same,"IL-12 concentration at which the number of IFN-γ secreting cells reached a maximum or plateau, IL-12 combined with the poly(I:C) variant",PBMC [2]; donor d248,0.01 µg/mL
polyinosinic:polycytidylic acid [poly(I:C)],number of IFN-γ secreting cells detected,PBMC [1],over 270 IFN-γ secreting cells
